Assay type in all cases: in vivo
Data set [1] can be described thus: Compound 1 single dose rat PK study. As to conditions: male Sprague Dawley rats, single iv dose 2 mg/kg, first plasma collection time listed as Tmax. As to the method:
A pharmacokinetic study of Compound 1 following a single intravenous or oral dose administration to male Sprague Dawley rats was conducted, the results of which are found in Table 3 and FIGS. 9-14.

A short description of data set [2]: Compound 1 single dose mouse PK study. As to conditions: male CD-1 mice, single iv dose 2 mg/kg; first plasma collection time. As to the method: A pharmacokinetic study of Compound 1 following a single intravenous or oral dose administration to male CD-1 mice was conducted, the results of which are found in Table 4 and FIGS. 15-20.
A short description of data set [3]: Compound 2 single dose rat PK study. As to conditions: male Sprague Dawley rats, single iv dose 2 mg/kg; for Tmax: first plasma collection time or observed time of highest plasma concentration. As to the method:
A pharmacokinetic study of Compound 2 following a single intravenous or oral dose administration to male Sprague Dawley rats was conducted, the results of which are found in Table 5 and FIGS. 21-24.

“And” between values parts separate entries of the source, which are not always exact repeats. Equal entries are not always repeated. Marks after values point to notes of the source that are not given here.

As for `CC(=O)N1CCc2c(C(=O)N3CCC(c4ccc(F)c(F)c4C(F)(F)F)CC3)n[nH]c2C1` [Compound 1, 1-(3-(4-(3,4-difluoro-2-(trifluoromethyl)phenyl)piperidine-1-carbonyl)-1,4,5,7-tetrahydro-6H-pyrazolo[3,4-c]pyridin-6-yl)ethan-1-one], the results for the Tmax in data set [1] (Mean), in data set [1] (individual rat) and in data set [2] were 4.98 min, 4.98 min and 0.083^b hr, respectively.
Regarding `CC(=O)N1Cc2[nH]nc(C(=O)N3CCC(c4ccc(F)c(F)c4C(F)(F)F)CC3)c2C1` [Compound 2, 1-(3-(4-(3,4-difluoro-2-(trifluoromethyl)phenyl)piperidine-1-carbonyl)-4,6-dihydropyrrolo[3,4-c]pyrazol-5(1H)-yl)ethan-1-one], the time to peak (Tmax) in data set [3] (Mean) amounted to 13.3 min. Further, in data set [3] (individual rat, 2 mg/kg), the AUCinf was 4027 ng·h/mL and 5052 ng·h/mL; the Cl is 4.13 mL/min/kg and 3.3 mL/min/kg; the time of peak concentration (Tmax) was 4.98 min.

As usually defined, the Tmax is the time at which the peak concentration occurs.

Values taken from US20250295654A1, “METHODS OF TREATING METABOLIC DISEASES WITH FUSED BICYCLIC PYRAZOLES” (Belite Bio, Inc, priority 2019, published 2025).
